In US20140329868A1, “METHODS FOR TREATING HYPERTENSION” (TAKEDA PHARMACEUTICALS U.S.A., INC., priority 2005, published 2014):

Legend:
[1] = test system: subjects having a systolic BP≧160 mmHg or diastolic BP≧95 mmHg (elevated blood pressure); test: Example 2: blood pressure change in subjects with elevated blood pressure, none taking angiotensin-converting enzyme inhibitors (two double-blind studies); format: in vivo, human; details: 300/100 mg QD
Method: None of these subjects were taking any angiotensin-coverting enzyme inhibitors, but might have been taking some other type of antihypertensive drug at the baseline (start) of the study. These 158 subjects were part of two (2) DB studies. One study was of 28 weeks in duration during which subjects received 80 mg, 120 mg or 240 mg QD of febuxostat or placebo or allopurinol 300 or 100 mg QD, depending on the subject's renal function. The second study was 52 weeks in duration during which subjects received 80 mg or 120 mg QD of febuxostat or allopurinol 300 mg QD. […] A total of 52 weeks of treatment was completed by 15 subjects in the febuxostat 80 mg QD group, 9 in the febuxostat 120 mg QD group and 17 in the allopurinol 300/100 mg QD group. Because of the shorter duration of one of the two DB studies, no subject in the placebo and febuxostat 240 mg QD groups was treated for 52 weeks.

[2] = test system: subjects having a systolic BP≧160 mmHg or diastolic BP≧95 mmHg (elevated blood pressure); test: Example 3: blood pressure change in subjects with elevated blood pressure, none taking angiotensin antagonists (two double-blind studies); format: in vivo, human; details: 300/100 mg QD
Method: None of these subjects were taking any angiotensin antagonists, but might have been taking some other type of antihypertensive drug at the baseline (start) of the study. These 187 subjects were part of two (2) DB studies. One study was of 28 weeks in duration during which subjects received 80 mg, 120 mg or 240 mg QD of febuxostat or placebo or allopurinol 300 or 100 mg QD, depending on the subject's renal function. The second study was of 52 weeks in duration during which subjects received 80 mg or 120 mg QD of febuxostat or allopurinol 300 mg QD. Of these 187 subjects, all completed 4 weeks of treatment and 132 completed 28 weeks of treatment. A total of 52 weeks of treatment was completed by 15 subjects in the febuxostat 80 mg QD group, 11 in the febuxostat 120 mg QD group and 22 in the allopurinol 300/100 mg QD group. Because of the shorter duration of one of the 2 DB studies, no subject in the placebo and febuxostat 240 mg QD groups were treated for 52 weeks.

[3] = biological target: T1, purine nucleotide phosphorylase (Homo sapiens, UniProt P00491); details: at a therapeutically effective amount in a subject; stated as known; cited from earlier work
T1 sequence (P00491 1-289): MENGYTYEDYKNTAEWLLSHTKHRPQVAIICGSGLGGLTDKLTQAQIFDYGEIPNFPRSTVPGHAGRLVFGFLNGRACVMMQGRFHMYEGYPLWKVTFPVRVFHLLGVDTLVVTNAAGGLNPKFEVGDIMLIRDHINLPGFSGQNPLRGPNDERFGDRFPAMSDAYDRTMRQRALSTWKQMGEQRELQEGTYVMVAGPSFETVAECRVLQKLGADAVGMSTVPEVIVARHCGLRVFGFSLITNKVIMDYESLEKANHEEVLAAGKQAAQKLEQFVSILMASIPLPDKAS

[4] = test system: subjects having a systolic BP≧160 mmHg or diastolic BP≧95 mmHg (elevated blood pressure); test: Example 1: blood pressure change in subjects with elevated blood pressure, none taking antihypertensive agents at baseline (two double-blind studies); format: in vivo, human; details: 300/100 mg QD
Method: A total of 103 subjects (9 in the placebo group, 26 in each the 2-[3-cyano-4-(2-methylpropoxy)phenyl]-4-methylthiazole-5-carboxylic acid (hereinafter referred to as “febuxostat”) 80 mg and 120 mg once daily (hereinafter referred to as “QD”) groups, 10 in the febuxostat 240 mg QD group and 32 in the 4-hydroxy-3,4-pyrazolopyrimidine (hereinafter referred to as “allopurinol”) 300/100 mg QD group), having a systolic BP≧160 mmHg or diastolic BP≧95 mmHg, and thus considered to have “elevated blood pressure”, were examined. Allopurinol […] xanthine oxidoreductase inhibitor.
None of the above subjects were taking any antihypertensive agents at the baseline (start) of the study. These […] subjects were part of two (2) double-blind (hereinafter referred to as “DB”) studies. One study was of 28 weeks in duration. During this time, the subjects received 80 mg, 120 mg or 240 mg QD of febuxostat, placebo or allopurinol 300 or 100 mg QD, depending on the subject's renal function. The second study was 52 weeks in duration. During this time, the subjects received 80 mg or 120 mg QD of febuxostat or allopurinol 300 mg QD.

[5] = biological target: orotidine-5-monophosphate decarboxylase (Homo sapiens, UniProt P11172); details: at a therapeutically effective amount in a subject; stated as known; cited from earlier work
Sequence of orotidine-5-monophosphate decarboxylase (P11172 whole entry): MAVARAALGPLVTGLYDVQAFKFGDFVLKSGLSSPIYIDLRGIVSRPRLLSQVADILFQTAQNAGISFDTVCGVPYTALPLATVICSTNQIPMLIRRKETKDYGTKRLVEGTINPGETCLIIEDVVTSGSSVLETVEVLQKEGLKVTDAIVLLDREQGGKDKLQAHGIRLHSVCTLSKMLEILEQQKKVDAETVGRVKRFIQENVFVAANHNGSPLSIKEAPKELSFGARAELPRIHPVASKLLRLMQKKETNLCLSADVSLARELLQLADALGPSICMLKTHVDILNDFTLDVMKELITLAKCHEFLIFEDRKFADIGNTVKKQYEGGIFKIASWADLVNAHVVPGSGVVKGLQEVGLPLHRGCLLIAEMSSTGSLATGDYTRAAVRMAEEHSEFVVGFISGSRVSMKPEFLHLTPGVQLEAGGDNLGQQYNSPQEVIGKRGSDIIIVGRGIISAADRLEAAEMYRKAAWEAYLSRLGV

## Oc1ncnc2[nH]ncc12 [allopurinol, 4-hydroxy-3,4-pyrazolopyrimidine]
[1]; after 4 weeks of treatment
  mean change from baseline for diastolic BP: −6.7 mmHg
  mean change from baseline for mean arterial BP: −6.7 mmHg
  mean change from baseline for systolic BP: −6.6 mmHg
[1]; after 28 weeks of treatment
  mean change from baseline for diastolic BP: −10.1 mmHg
  mean change from baseline for mean arterial BP: −9.8 mmHg
  mean change from baseline for systolic BP: −9.1 mmHg
[1]; after 52 weeks of treatment
  mean change from baseline for diastolic BP: −11.4 mmHg
  mean change from baseline for mean arterial BP: −10.8 mmHg
  mean change from baseline for systolic BP: −9.5 mmHg
[2]; after 4 weeks of treatment
  mean change from baseline for diastolic BP: −5.7 mmHg
  mean change from baseline for mean arterial BP: −6.1 mmHg
  mean change from baseline for systolic BP: −7.0 mmHg
[2]; after 28 weeks of treatment
  mean change from baseline for diastolic BP: −8.7 mmHg
  mean change from baseline for mean arterial BP: −8.8 mmHg
  mean change from baseline for systolic BP: −9.0 mmHg
[2]; after 52 weeks of treatment
  mean change from baseline for diastolic BP: −11.6 mmHg
  mean change from baseline for mean arterial BP: −11.1 mmHg
  mean change from baseline for systolic BP: −10.0 mmHg
[3]
  effect on the activity of purine nucleotide phosphorylase: has an effect
[4]; after 4 weeks of treatment
  mean change from baseline for diastolic BP: −6.3 mmHg
  mean change from baseline for mean arterial BP: −6.8 mmHg
  mean change from baseline for systolic BP: −7.7 mmHg
[4]; after 28 weeks of treatment
  mean change from baseline for diastolic BP: −8.2 mmHg
  mean change from baseline for mean arterial BP: −7.8 mmHg
  mean change from baseline for systolic BP: −7.0 mmHg
[4]; after 52 weeks of treatment
  mean change from baseline for diastolic BP: −10.9 mmHg
  mean change from baseline for mean arterial BP: −10.4 mmHg
  mean change from baseline for systolic BP: −9.4 mmHg
[5]
  effect on the activity of orotidine-5-monophosphate decarboxylase: has an effect
